ChEMBL document CHEMBL1155127, “Paw paw and cancer: annonaceous acetogenins from discovery to commercial products” (J Nat Prod, 2008)

Legend:
[1] = tested on: A2780; assay: Antitumor activity against human A2780 cell xenografted athymic mouse at 125 ug/kg/day; type: functional; conditions: read-out: TGI
[2] = tested on: L1210; assay: Antitumor activity against mouse L1210 cell xenografted mouse at 400 ug/kg; type: functional
[3] = tested on: P388; assay: Antitumor activity against mouse P388 cells in at 1.4 mg/kg by in vivo 3PS assay; type: functional
[4] = Antitumor activity against multidrug resistant human KBv200 cell xenografted mouse assessed as inhibition of tumor growth at 900 ug/kg administered every 2 days for 6 days; type: functional
[5] = tested on: KB; assay: Antitumor activity against human KB cell xenografted mouse assessed as inhibition of tumor growth at 900 ug/kg administered every 2 days for 6 days; type: functional
[6] = tested on: P388; assay: Antitumor activity against mouse P388 cells at 25 ug/kg by in vivo 3PS assay; type: functional
[7] = tested on: L1210; assay: Antitumor activity against mouse L1210 cell xenografted mouse at 200 ug/kg; type: functional
[8] = tested on: P388; assay: Antitumor activity against mouse P388 cells xenografted mouse at 0.025 mg/kg/day for 10 days by 3PS assay; type: functional
[9] = tested on: P388; assay: Antitumor activity against mouse P388 cells xenografted mouse at 0.95 mg/kg/day for 10 days by 3PS assay; type: functional
[10] = tested on: A2780; assay: Antitumor activity against human A2780 cell xenografted athymic mouse at 1000 ug/kg/day; type: functional; conditions: read-out: TGI
[11] = tested on: Mus musculus; assay: Toxicity in mouse P388 cells xenografted mouse at 0.22 mg/kg/day for 10 days; conditions: in vivo, 240 h
[12] = tested on: P388; assay: Antitumor activity against mouse P388 cells at 250 ug/kg by in vivo 3PS assay; type: functional
[13] = tested on: L1210; assay: Antitumor activity against mouse L1210 cell xenografted mouse at 15000 ug/kg; type: functional

In the case of `CCCCCCCCCC[C@H](O)[C@H]1CC[C@H]([C@H]2CC[C@H]([C@H](O)CCCCCCCCCC[C@@H]3CC(CC(C)=O)C(=O)O3)O2)O1` (some centres undefined) [BULLATACINONE], the inhibition in vivo at 0.125 mg/kg/day [1] is reported as 52% and the T/C [2] is reported as 144%.
Work on `CCCCCCCCCCC(O)C1CCC(C2CCC(C(O)C(=O)CCCCCCCCCCCC3CC(C)OC3=O)O2)O1` (centres undefined) [ROLLINONE] yielded a T/C [3] of 147%.
Work on `CCCCC[C@@H](O)[C@H](O)CCC[C@@H](O)[C@H]1CC[C@H]([C@H]2CC[C@H]([C@H](O)CCCCCCCCCCCCC3=C[C@H](C)OC3=O)O2)O1` yielded an inhibition in vivo at 0.9 mg/kg [4] of 56.5% and an inhibition in vivo at 0.9 mg/kg [5] of 52.3%.
For `CCCCCCCCCCC(O)C1CCC(C2CCC(C(O)CCCCCCCC[C@H](O)CC3=C[C@@H](C)OC3=O)O2)O1` (some centres undefined) [ASIMICIN], the T/C [6] was 124%, the T/C [7] was 131% and the T/C [8] was 124%.
`CCCCCCCCCCCC[C@@H](O)[C@H]1CC[C@H]([C@H](O)CCCC[C@H](O)CCCCC[C@@H](O)CC2=CC(C)OC2=O)O1` (some centres undefined) [ANNONACIN] showed a T/C [9] of 124%.
Molecule `CCCCCCCCCC[C@H](O)[C@H]1CC[C@H]([C@H](O)CC[C@H](O)[C@@H]2CC[C@@H](CCCCCCC[C@@H](O)CC3=C[C@H](C)OC3=O)O2)O1` [BULLATALICIN] has an inhibition in vivo at 1 mg/kg/day [10] of 75%.
For `CCCCCCCCCC[C@H](OC(C)=O)[C@H]1CC[C@H]([C@H]2CC[C@H]([C@H](O)CCCCCCCCCCCCC3=C[C@H](C)OC3=O)O2)O1` [UVARICIN], the T/C [3] was 157%.
For `CCCCCCCCCC[C@@H](O)[C@H]1CC[C@H]([C@H]2CC[C@H]([C@H](O)CCCCCCCCCC[C@@H](O)CC3=C[C@H](C)OC3=O)O2)O1` [ASIMICIN], the Activity [11] was “Toxic”.
With `CCCCCCCCCCC(O)C1CCC(C2CCC(C(O)CCCCCCCCCCC(O)CC3=CC(C)OC3=O)O2)O1` (centres undefined) [ROLLINIASTATIN] the T/C [12] was 128%.
With `CC(=O)O[C@H]1C(=O)[C@@]2(C)[C@H]([C@H](OC(=O)c3ccccc3)[C@]3(O)C[C@H](OC(=O)[C@H](O)[C@@H](NC(=O)c4ccccc4)c4ccccc4)C(C)=C1C3(C)C)[C@]1(OC(C)=O)CO[C@@H]1C[C@@H]2O` [PACLITAXEL] the T/C [13] was 139%.
